# Test results from patent US11279683B2, “Thiophene derivatives as antiviral agents” (ENYO PHARMA, priority 2016, dated 2022).
# Tested on: H1N1 (influenza A/New Caledonia/20/99)
# Assay: microbe, parasite or virus in culture
# Type: cell-based
# Conditions: not given
row,Compound,IC50
1,"2-[[6-tert-butoxycarbonyl-3-[(4-chlorophenyl)carbamoyl]-5,7-dihydro-4H-thieno[2,3-c]pyridin-2-yl]carbamoyl]cyclohexanecarboxylic acid [Compound 91]",10 µM
2,"O=C(Nc1ccc(Cl)cc1)c1c(NC(=O)C2CCC(C(=O)O)CC2)sc2c1CCC2 (single isomer, unassigned) [Compound 98, 4-[[3-[(4-chlorophenyl)carbamoyl]-5,6-dihydro-4H-cyclopenta[b]thiophen-2-yl]carbamoyl]cyclohexanecarboxylic acid]",15.9 µM

# Same assay, conditions: Influenza A virus, H1N1, A549, 48 h
row,Compound,IC50
1,"O=C(Nc1ccc(Cl)cc1)c1c(NC(=O)C2CCC(C(=O)O)CC2)sc2c1CCC2 (single isomer, unassigned) [Compound 97, 4-[[3-[(4-chlorophenyl)carbamoyl]-5,6-dihydro-4H-cyclopenta[b]thiophen-2-yl]carbamoyl]cyclohexanecarboxylic acid]",14.7 µM
2,"CC(C)(C)C1CCc2c(sc(NC(=O)[C@H]3CCCC[C@H]3C(=O)O)c2C(=O)Nc2ccc(Cl)cc2)C1 (stereo in doubt) [Compound 79, 2-[[6-tert-butyl-3-[(4-chlorophenyl)carbamoyl]-4,5,6,7-tetrahydrobenzothiophen-2-yl]carbamoyl]cyclohexanecarboxylic acid]",1.85 µM
3,"CONC(=O)[C@@H]1CCCC[C@@H]1C(=O)Nc1sc2c(c1C(=O)Nc1ccc(Cl)cc1)CCC2 (stereo in doubt) [Compound 88, N1-[3-[(4-chlorophenyl)carbamoyl]-5,6-dihydro-4H-cyclopenta[b]-thiophen-2-yl]-N2-methoxy-cyclohexane-1,2-dicarboxamide]",8.4 µM
4,"O=C(Nc1ccc(Cl)cc1)c1c(NC(=O)[C@H]2CCCC[C@H]2C(=O)NO)sc2c1CCC2 (stereo in doubt) [Compound 90, N-(4-chlorophenyl)-2-[[2-(hydroxycarbamoyl)cyclohexanecarbonyl]amino]-5,6-dihydro-4H-cyclopenta[b]thiophene-3-carboxamide]",9 µM
5,"Cc1ccc(NC(=O)c2c(NC(=O)C3CCCCC3C(=O)O)sc3c2CCC3)cc1C (stereo not drawn) [Compound 1, 2-[[3-[(3,4-Dimethylphenyl)carbamoyl]-5,6-dihydro-4H-cyclopenta[b]thiophen-2-yl]carbamoyl]cyclohexanecarboxylic acid]",7.78 µM
6,"O=C(Nc1ccc(Cl)nc1)c1c(NC(=O)C2CCCCC2C(=O)O)sc2c1CCC2 (stereo not drawn) [Compound 2, 2-[[3-[(6-Chloro-3-pyridyl)carbamoyl]-5,6-dihydro-4H-cyclopenta[b]thiophen-2-yl]carbamoyl]cyclohexanecarboxylic acid]",18 µM
7,"O=C(Nc1ccc2c(c1)OCO2)c1c(NC(=O)C2CCCCC2C(=O)O)sc2c1CCC2 (stereo not drawn) [Compound 3, 2-[[3-(1,3-Benzodioxol-5-ylcarbamoyl)-5,6-dihydro-4H-cyclopenta[b]thiophen-2-yl]carbamoyl]cyclohexanecarboxylic acid]",10.3 µM
8,"O=C(Nc1ccc(F)cc1)c1c(NC(=O)C2CCCCC2C(=O)O)sc2c1CCC2 (stereo not drawn) [Compound 4, 2-[[3-[(4-Fluorophenyl)carbamoyl]-5,6-dihydro-4H-cyclopenta[b]thiophen-2-yl]carbamoyl]cyclohexanecarboxylic acid]",15 µM
9,"O=C(NCc1ccc(Cl)cc1)c1c(NC(=O)C2CCCCC2C(=O)O)sc2c1CCC2 (stereo not drawn) [Compound 5, 2-[[3-[(4-Chlorophenyl)methylcarbamoyl]-5,6-dihydro-4H-cyclopenta[b]thiophen-2-yl]carbamoyl]cyclohexanecarboxylic acid]",10.7 µM
10,"O=C(Nc1ccc(Cl)c(C(F)(F)F)c1)c1c(NC(=O)C2CCCCC2C(=O)O)sc2c1CCC2 (stereo not drawn) [Compound 6, 2-[[3-[[4-Chloro-3-(trifluoromethyl)phenyl]carbamoyl]-5,6-dihydro-4H-cyclopenta[b]thiophen-2-yl]carbamoyl]cyclohexanecarboxylic acid]",4.68 µM
11,"Cc1cc(Cl)ccc1NC(=O)c1c(NC(=O)C2CCCCC2C(=O)O)sc2c1CCC2 (stereo not drawn) [Compound 7, 2-[[3-[(4-Chloro-2-methyl-phenyl)carbamoyl]-5,6-dihydro-4H-cyclopenta[b]thiophen-2-yl]carbamoyl]cyclohexanecarboxylic acid]",10.1 µM
12,"CO[C@H]1CC[C@H](NC(=O)c2c(NC(=O)C3CCCCC3C(=O)O)sc3c2CCC3)CC1 (stereo partly drawn) [Compound 8, 2-[[3-[(Trans-4-methoxycyclohexyl)carbamoyl]-5,6-dihydro-4H-cyclopenta[b]thiophen-2-yl]carbamoyl]cyclohexanecarboxylic acid]",27.4 µM
13,"O=C(Nc1ccc(CCO)cc1)c1c(NC(=O)C2CCCCC2C(=O)O)sc2c1CCC2 (stereo not drawn) [Compound 9, 2-[[3-[[4-(2-Hydroxyethyl)phenyl]carbamoyl]-5,6-dihydro-4H-cyclopenta[b]thiophen-2-yl]carbamoyl]cyclohexanecarboxylic acid]",21.1 µM
14,"O=C(Nc1ccc(-c2ccccc2)cc1)c1c(NC(=O)C2CCCCC2C(=O)O)sc2c1CCC2 (stereo not drawn) [Compound 10, 2-[[3-[(4-Phenylphenyl)carbamoyl]-5,6-dihydro-4H-cyclopenta[b]thiophen-2-yl]carbamoyl]cyclohexanecarboxylic acid]",2.38 µM
15,"O=C(NCc1cccc(Cl)c1)c1c(NC(=O)C2CCCCC2C(=O)O)sc2c1CCC2 (stereo not drawn) [Compound 11, 2-[[3-[(3-Chlorophenyl)methylcarbamoyl]-5,6-dihydro-4H-cyclopenta[b]thiophen-2-yl]carbamoyl]cyclohexanecarboxylic acid]",8.63 µM
16,"CC(=O)c1cccc(NC(=O)c2c(NC(=O)C3CCCCC3C(=O)O)sc3c2CCC3)c1 (stereo not drawn) [Compound 12, 2-[[3-[(3-Acetylphenyl)carbamoyl]-5,6-dihydro-4H-cyclopenta[b]thiophen-2-yl]carbamoyl]cyclohexanecarboxylic acid]",21.2 µM

row,Compound,IC50
1,"Cc1cc(NC(=O)c2c(NC(=O)C3CCCCC3C(=O)O)sc3c2CCC3)ccc1Cl (stereo not drawn) [Compound 13, 2-[[3-[(4-Chloro-3-methyl-phenyl)carbamoyl]-5,6-dihydro-4H-cyclopenta[b]thiophen-2-yl]carbamoyl]cyclohexanecarboxylic acid]",4.68 µM
2,"Cc1ccc(NC(=O)c2c(NC(=O)C3CCCCC3C(=O)O)sc3c2CCC3)cc1Cl (stereo not drawn) [Compound 14, 2-[[3-[(3-chloro-4-methyl-phenyl)carbamoyl]-5,6-dihydro-4H-cyclopenta[b]thiophen-2-yl]carbamoyl]cyclohexanecarboxylic acid]",4.78 µM
3,"O=C(Nc1ccc(N2CCOCC2)cc1)c1c(NC(=O)C2CCCCC2C(=O)O)sc2c1CCC2 (stereo not drawn) [Compound 15, 2-[[3-[(4-Morpholinophenyl)carbamoyl]-5,6-dihydro-4H-cyclopenta[b]thiophen-2-yl]carbamoyl]cyclohexanecarboxylic acid]",11.2 µM
4,"O=C(Nc1ccc(F)c(F)c1)c1c(NC(=O)C2CCCCC2C(=O)O)sc2c1CCC2 (stereo not drawn) [Compound 16, 2-[[3-[(3,4-Difluorophenyl)carbamoyl]-5,6-dihydro-4H-cyclopenta[b]thiophen-2-yl]carbamoyl]cyclohexanecarboxylic acid]",10.4 µM
5,"O=C(Nc1cccc(Cl)c1)c1c(NC(=O)C2CCCCC2C(=O)O)sc2c1CCC2 (stereo not drawn) [Compound 17, 2-[[3-[(3-Chlorophenyl)carbamoyl]-5,6-dihydro-4H-cyclopenta[b]thiophen-2-yl]carbamoyl]cyclohexanecarboxylic acid]",4.88 µM
6,"O=C(NC1CCC(F)(F)CC1)c1c(NC(=O)C2CCCCC2C(=O)O)sc2c1CCC2 (stereo not drawn) [Compound 18, 2-[[3-[(4,4-Difluorocyclohexyl)carbamoyl]-5,6-dihydro-4H-cyclopenta[b]thiophen-2-yl]carbamoyl]cyclohexanecarboxylic acid]",33 µM
7,"O=C(Nc1ccc(CO)cc1)c1c(NC(=O)C2CCCCC2C(=O)O)sc2c1CCC2 (stereo not drawn) [Compound 19, 2-[[3-[[4-(Hydroxymethyl)phenyl]carbamoyl]-5,6-dihydro-4H-cyclopenta[b]thiophen-2-yl]carbamoyl]cyclohexanecarboxylic acid]",30.8 µM
8,"O=C(Nc1ccc(OC(F)(F)F)cc1)c1c(NC(=O)C2CCCCC2C(=O)O)sc2c1CCC2 (stereo not drawn) [Compound 20, 2-[[3-[[4-(Trifluoromethoxy)phenyl]carbamoyl]-5,6-dihydro-4H-cyclopenta[b]thiophen-2-yl]carbamoyl]cyclohexanecarboxylic acid]",6.48 µM
9,"CC(C)(C)c1ccc(NC(=O)c2c(NC(=O)C3CCCCC3C(=O)O)sc3c2CCC3)cc1 (stereo not drawn) [Compound 21, 2-[[3-[(4-tert-Butylphenyl)carbamoyl]-5,6-dihydro-4H-cyclopenta[b]thiophen-2-yl]carbamoyl]cyclohexanecarboxylic acid]",4.68 µM
10,"CCCCCNC(=O)c1c(NC(=O)C2CCCCC2C(=O)O)sc2c1CCC2 (stereo not drawn) [Compound 22, 2-[[3-(pentylcarbamoyl)-5,6-dihydro-4H-cyclopenta[b]thiophen-2-yl]carbamoyl]cyclohexanecarboxylic acid]",20.3 µM
11,"O=C(NC1CCc2ccccc21)c1c(NC(=O)C2CCCCC2C(=O)O)sc2c1CCC2 (stereo not drawn) [Compound 23, 2-[[3-(Indan-1-ylcarbamoyl)-5,6-dihydro-4H-cyclopenta[b]thiophen-2-yl]carbamoyl]cyclohexanecarboxylic acid]",6.28 µM
12,"O=C(NCC1CCCCC1)c1c(NC(=O)C2CCCCC2C(=O)O)sc2c1CCC2 (stereo not drawn) [Compound 24, 2-[[3-(Cyclohexylmethylcarbamoyl)-5,6-dihydro-4H-cyclopenta[b]thiophen-2-yl]carbamoyl]cyclohexanecarboxylic acid]",12.3 µM
13,"CC(C)c1ccc(NC(=O)c2c(NC(=O)C3CCCCC3C(=O)O)sc3c2CCC3)cc1 (stereo not drawn) [Compound 25, 2-[[3-[(4-Isopropylphenyl)carbamoyl]-5,6-dihydro-4H-cyclopenta[b]thiophen-2-yl]carbamoyl]cyclohexanecarboxylic acid]",4.68 µM
14,"O=C(Nc1cnc(Cl)cn1)c1c(NC(=O)C2CCCCC2C(=O)O)sc2c1CCC2 (stereo not drawn) [Compound 26, 2-[[3-[(5-Chloropyrazin-2-yl)carbamoyl]-5,6-dihydro-4H-cyclopenta[b]thiophen-2-yl]carbamoyl]cyclohexanecarboxylic acid]",19.3 µM
15,"O=C(Nc1ccc(C(F)(F)F)cc1)c1c(NC(=O)C2CCCCC2C(=O)O)sc2c1CCC2 (stereo not drawn) [Compound 27, 2-[[3-[[4-(Trifluoromethyl)phenyl]carbamoyl]-5,6-dihydro-4H-cyclopenta[b]thiophen-2-yl]carbamoyl]cyclohexanecarboxylic acid]",18.1 µM
